In patent publication US11427615B2, “Peptide compound and application thereof, and composition containing peptide compound” (XDCEXPLORER (SHANGHAI) CO., LTD., priority 2017, dated 2022):
Starred links: 1 amine or outer side, 2 acyl side, 3 side chain; linkers in the order of their positions; H or OH if unused. Non-standard residues stand in square brackets, D forms with d. Residues, ends and D or L forms follow the SMILES beside them. X11 = O=C(c1nnc([C@H](Cc2ccccc2)N[*:1])[nH]1)[*:2]; X14 = O=C(c1cnc([C@H](Cc2ccccc2)N[*:1])[nH]1)[*:2]; dPhe(2,4-Cl2) = N[C@H](Cc1ccc(Cl)cc1Cl)C(=O)O; Ala(2-furyl) = N[C@@H](Cc1ccco1)C(=O)O; Phe(4-F) = N[C@@H](Cc1ccc(F)cc1)C(=O)O; Pro(4,4-F2) = O=C(O)[C@@H]1CC(F)(F)CN1; dAla(2-furyl) = N[C@H](Cc1ccco1)C(=O)O; dPhe(4-F) = N[C@H](Cc1ccc(F)cc1)C(=O)O; Arg(Me) = CNC(=N)NCCC[C@H](N)C(=O)O; Hyp = O=C(O)[C@@H]1C[C@@H](O)CN1; azaPro = O=C(N1CCCN1[*:1])[*:2]; 2Thi = N[C@@H](Cc1cccs1)C(=O)O; Pip = O=C(O)[C@@H]1CCCCN1; Ac6c = NC1(C(=O)O)CCCCC1; Aze = O=C(O)[C@@H]1CCN1

Each compound was assayed against T1, human kiss1 receptor (GPR54) (Homo sapiens, UniProt Q969F8) (assay: Kiss1 receptor (GPR54) binding activity of agonists, FRET detection in NFAT-bla CHO-K1 cells). Conditions: GPR54; measured according to the method of effect Embodiment 1; preliminary data; read-out: Preliminary measurement data (GPR54) EC50.
T1 construct: host or cells: NFAT-bla CHO-K1 cells (Chinese hamster ovary), purchased recombinant cell line
T1 sequence (Q969F8 whole entry): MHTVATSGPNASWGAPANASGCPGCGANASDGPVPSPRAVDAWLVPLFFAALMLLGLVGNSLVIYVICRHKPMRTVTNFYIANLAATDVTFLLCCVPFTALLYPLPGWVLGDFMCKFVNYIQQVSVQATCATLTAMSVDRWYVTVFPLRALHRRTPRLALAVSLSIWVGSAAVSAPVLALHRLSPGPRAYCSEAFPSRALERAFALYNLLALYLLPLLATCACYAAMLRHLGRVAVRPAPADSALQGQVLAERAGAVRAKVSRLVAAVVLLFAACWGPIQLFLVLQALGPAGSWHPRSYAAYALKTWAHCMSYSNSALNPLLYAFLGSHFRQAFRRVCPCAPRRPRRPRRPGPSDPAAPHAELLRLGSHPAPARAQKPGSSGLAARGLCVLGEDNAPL
Format: cell-based

| EC50 [nM] | SMILES |
| --- | --- |
| 0.57 | CNC(=N)NCCC[C@H](NC(=O)[C@H](CC(C)C)NC(=O)C1(NC(=O)[C@H](Cc2ccccc2)NC(=O)[C@@H](NC(=O)[C@H](CC(N)=O)NC(=O)[C@@H]2C[C@@H](O)CN2C(=O)[C@@H](Cc2ccco2)NC(C)=O)[C@@H](C)O)CCCCC1)C(=O)N[C@@H](Cc1c[nH]c2ccccc12)C(N)=O [YA-197, Ac-(D-2Fua)-Hyp-Asn-Thr-Phe-A6c-Leu-Arg(Me)-Trp-NH2] (Ac-[dAla(2-furyl)][Hyp]NTF[Ac6c]L[Arg(Me)]W-NH2) |
| 382 | CNC(=N)NCCC[C@H](NC(=O)[C@H](CC(C)C)NC(=O)C1(NC(=O)[C@H](Cc2ccccc2)NC(=O)[C@@H](NC(=O)[C@H](CC(N)=O)NC(=O)[C@@H]2C[C@@H](O)CN2C(=O)[C@H](Cc2ccc(F)cc2)NC(C)=O)[C@@H](C)O)CCCCC1)C(=O)N[C@@H](Cc1c[nH]c2ccccc12)C(N)=O [YA-198, Ac-Phe(4-F)-Hyp-Asn-Thr-Phe-A6c-Leu-Arg(Me)-Trp-NH2] (Ac-[Phe(4-F)][Hyp]NTF[Ac6c]L[Arg(Me)]W-NH2) |
| 15.6 | CNC(=N)NCCC[C@H](NC(=O)[C@H](CC(C)C)NC(=O)C1(NC(=O)[C@H](Cc2ccccc2)NC(=O)[C@@H](NC(=O)[C@H](CC(N)=O)NC(=O)[C@H](Cc2cccs2)NC(=O)[C@@H](Cc2ccc(F)cc2)NC(C)=O)[C@@H](C)O)CCCCC1)C(=O)N[C@@H](Cc1c[nH]c2ccccc12)C(N)=O [YA-199, Ac-[D-Phe(4-F)]-Thi-Asn-Thr-Phe-A6c-Leu-Arg(Me)-Trp-NH2] (Ac-[dPhe(4-F)][2Thi]NTF[Ac6c]L[Arg(Me)]W-NH2) |
| 25.4 | CNC(=N)NCCC[C@H](NC(=O)[C@H](CC(C)C)NC(=O)C1(NC(=O)[C@H](Cc2ccccc2)NC(=O)[C@@H](NC(=O)[C@H](CC(N)=O)NC(=O)N2CCCN2C(=O)[C@@H](Cc2ccc(Cl)cc2Cl)NC(C)=O)[C@@H](C)O)CCCCC1)C(=O)N[C@@H](Cc1c[nH]c2ccccc12)C(N)=O [YA-200, Ac-D-Phe(2,4-DiCl)-azaPro-Asn-Thr-Phe-A6c-Leu-Arg(Me)-Trp-NH2] (Ac-[dPhe(2,4-Cl2)][azaPro]NTF[Ac6c]L[Arg(Me)]W-NH2) |
| 9.6 | CNC(=N)NCCC[C@H](NC(=O)[C@H](CC(C)C)NC(=O)C1(NC(=O)[C@H](Cc2ccccc2)NC(=O)[C@@H](NC(=O)[C@H](CC(N)=O)NC(=O)[C@@H]2CCCCN2C(=O)[C@H](Cc2ccc(F)cc2)NC(C)=O)[C@@H](C)O)CCCCC1)C(=O)N[C@@H](Cc1c[nH]c2ccccc12)C(N)=O [YA-202, Ac-Phe(4-F)-(S-Pip)-Asn-Thr-Phe-A6c-Leu-Arg(Me)-Trp-NH2] (Ac-[Phe(4-F)][Pip]NTF[Ac6c]L[Arg(Me)]W-NH2) |
| 1.19 | CNC(=N)NCCC[C@H](NC(=O)[C@H](CC(C)C)NC(=O)[C@@H]1CCN1C(=O)[C@H](Cc1ccccc1)NC(=O)[C@H](Cc1ccco1)NC(=O)[C@H](CC(N)=O)NC(=O)[C@@H]1C[C@@H](O)CN1C(=O)[C@@H](Cc1ccc(O)cc1)NC(C)=O)C(=O)N[C@@H](Cc1c[nH]c2ccccc12)C(N)=O [YA-203, Ac-(D-Tyr)-Hyp-Asn-2Fua-Phe-Aze-Leu-Arg(Me)-Trp-NH2] (Ac-[dY][Hyp]N[Ala(2-furyl)]F[Aze]L[Arg(Me)]W-NH2) |
| 8.72 | CNC(=N)NCCC[C@H](NC(=O)[C@H](CC(C)C)NC(=O)[C@@H]1CCN1C(=O)[C@H](Cc1ccccc1)NC(=O)[C@H](Cc1ccco1)NC(=O)[C@H](CC(N)=O)NC(=O)[C@H](Cc1cccs1)NC(=O)[C@@H](Cc1ccc(O)cc1)NC(C)=O)C(=O)N[C@@H](Cc1c[nH]c2ccccc12)C(N)=O [YA-204, Ac-(D-Tyr)-Thi-Asn-2Fua-Phe-Aze-Leu-Arg(Me)-Trp-NH2] (Ac-[dY][2Thi]N[Ala(2-furyl)]F[Aze]L[Arg(Me)]W-NH2) |
| 50.3 | CNC(=N)NCCC[C@H](NC(=O)[C@H](CC(C)C)NC(=O)[C@@H]1CCN1C(=O)[C@H](Cc1ccccc1)NC(=O)[C@H](Cc1ccco1)NC(=O)[C@H](CC(N)=O)NC(=O)[C@@H]1CC(F)(F)CN1C(=O)[C@@H](Cc1ccc(O)cc1)NC(C)=O)C(=O)N[C@@H](Cc1c[nH]c2ccccc12)C(N)=O [YA-205, Ac-(D-Tyr)-DiFluorPro-Asn-2Fua-Phe-Aze-Leu-Arg(Me)-Trp-NH2] (Ac-[dY][Pro(4,4-F2)]N[Ala(2-furyl)]F[Aze]L[Arg(Me)]W-NH2) |
| 3.6 | CNC(=N)NCCC[C@H](NC(=O)[C@H](CC(C)C)NC(=O)C1(NC(=O)[C@H](Cc2ccccc2)NC(=O)[C@@H](NC(=O)[C@H](CC(N)=O)NC(=O)[C@H](Cc2cccs2)NC(=O)[C@@H](Cc2ccc(Cl)cc2Cl)NC(C)=O)[C@@H](C)O)CCCCC1)C(=O)N[C@@H](Cc1c[nH]c2ccccc12)C(N)=O [YA-206, Ac-[D-Phe(2,4-DiCl)]-Thi-Asn-Thr-Phe-A6c-Leu-Arg(Me)-Trp-NH2] (Ac-[dPhe(2,4-Cl2)][2Thi]NTF[Ac6c]L[Arg(Me)]W-NH2) |
| 90 | CNC(=N)NCCC[C@H](NC(=O)[C@H](CC(C)C)NC(=O)C1(NC(=O)[C@H](Cc2ccccc2)NC(=O)[C@@H](NC(=O)[C@H](CC(N)=O)NC(=O)[C@H](Cc2c[nH]c3ccccc23)NC(=O)[C@H](Cc2cccs2)NC(=O)[C@@H](Cc2ccc(Cl)cc2Cl)NC(C)=O)[C@@H](C)O)CCCCC1)C(=O)N[C@@H](Cc1c[nH]c2ccccc12)C(N)=O [YA-207, Ac-[D-Phe(2,4-DiCl)]-Thi-Trp-Asn-Thr-Phe-A6c-Leu-Arg(Me)-Trp-NH2] (Ac-[dPhe(2,4-Cl2)][2Thi]WNTF[Ac6c]L[Arg(Me)]W-NH2) |
| 1.09 | CNC(=N)NCCC[C@H](NC(=O)[C@H](CC(C)C)NC(=O)c1cnc([C@H](Cc2ccccc2)NC(=O)[C@@H](NC(=O)[C@H](CC(N)=O)NC(=O)[C@@H]2C[C@@H](O)CN2C(=O)[C@@H](Cc2ccc(O)cc2)NC(C)=O)[C@@H](C)O)[nH]1)C(=O)N[C@@H](Cc1c[nH]c2ccccc12)C(N)=O [YA-208, Ac-(D-Tyr)-Hyp-Asn-Thr-{(S)-2-(1-amino-2-phenylethyl)-1H-imidazole-5-carboxylic acid}-Leu-Arg(Me)-Trp-NH2] (Ac-[dY][Hyp]NT[X14]L[Arg(Me)]W-NH2) |
| 1.4 | CNC(=N)NCCC[C@H](NC(=O)[C@H](CC(C)C)NC(=O)c1nnc([C@H](Cc2ccccc2)NC(=O)[C@@H](NC(=O)[C@H](CC(N)=O)NC(=O)[C@@H]2C[C@@H](O)CN2C(=O)[C@@H](Cc2ccc(O)cc2)NC(C)=O)[C@@H](C)O)[nH]1)C(=O)N[C@@H](Cc1c[nH]c2ccccc12)C(N)=O [YA-209, Ac-(D-Tyr)-Hyp-Asn-Thr-{(S)-5-(1-amino-2-phenylethyl)-4H-1,2,4-triazole-3-carboxylic acid}-Leu-Arg(Me)-Trp-NH2] (Ac-[dY][Hyp]NT[X11]L[Arg(Me)]W-NH2) |
| 1.47 | CNC(=N)NCCC[C@H](NC(=O)[C@H](CC(C)C)NC(=O)C1(NC(=O)[C@H](Cc2ccccc2)NC(=O)[C@@H](NC(=O)[C@H](CC(N)=O)NC(=O)[C@@H]2CCCCN2C(=O)[C@@H](Cc2ccc(F)cc2)NC(C)=O)[C@@H](C)O)CCCCC1)C(=O)N[C@@H](Cc1c[nH]c2ccccc12)C(N)=O [YA-210, Ac-[D-Phe(4-F)]-(S-Pip)-Asn-Thr-Phe-A6c-Leu-Arg(Me)-Trp-NH2] (Ac-[dPhe(4-F)][Pip]NTF[Ac6c]L[Arg(Me)]W-NH2) |
| 1.13 | CNC(=N)NCCC[C@H](NC(=O)[C@H](CC(C)C)NC(=O)[C@@H]1CCN1C(=O)[C@H](Cc1ccccc1)NC(=O)[C@@H](NC(=O)[C@H](CC(N)=O)NC(=O)[C@@H]1CCCCN1C(=O)[C@@H](Cc1ccc(F)cc1)NC(C)=O)[C@@H](C)O)C(=O)N[C@@H](Cc1c[nH]c2ccccc12)C(N)=O [YA-211, Ac-[D-Phe(4-F)]-(S-Pip)-Asn-Thr-Phe-Aze-Leu-Arg(Me)-Trp-NH2] (Ac-[dPhe(4-F)][Pip]NTF[Aze]L[Arg(Me)]W-NH2) |
